Data taken from patent publication US20110021554A1, “IMMUNE RESPONSE MODIFIER FORMULATIONS AND METHODS” (priority 2004, published 2011).

Experiment: Effect of sodium chloride on solubility of the drug
Type: physicochemical
Conditions: apparently due to salt formation

Solubility of the drug in presence of sodium chloride: reduces solubility of the drug
Structure (SMILES): CCc1nc2c(N)nc3ccccc3c2n1CCCCNS(C)(=O)=O [N-[4-(4-amino-2-ethyl-1H-imidazo[4,5-c]quinolin-1-yl)butyl]methanesulfonamide]
